Measured values from patent publication US5648366A, “Substituted pyrrolidin-3-yl-alkyl-piperidines” (Merrell Pharmaceuticals Inc., priority 1995, dated 1997).

Legend:
NK1 receptor = NK1 receptor (Cavia porcellus, UniProt P30547); assay: Antagonism of iodinated tachykinin (125I-substance P) binding to NK1 receptor in guinea pig lungs; parameters: tissue Keystone Biologicals, Cleveland, Ohio; host or cells: guinea pig lung membranes
Method: (§1) ANTAGONISM OF IODINATED TACHYKININ BINDING TO NK1 AND NK2 RECEPTORS BY PUTATIVE ANTAGONISTS
The NK1 receptor affinity of proposed tachykinin antagonists was evaluated in guinea pig lungs (Keystone Biologicals, Cleveland, Ohio), affinity for the NK2 receptor evaluated in HSKR-1 cells (which are mouse 3T3 fibroblasts expressing the human jejunal NK2 receptor) and NK-3 receptor affinity was evaluated in freshly collected guinea pig cerebral cortex. Tissues or cells were homogenized with a Polytron in 15 volumes of 50 mM Tris-HCl buffer (pH 7.4, 4° C.) and centrifuged. The pellet was resuspended in Tris-HCl buffer and was centrifuged; the pellet was washed twice by resuspension. The final pellet was resuspended at a concentration of 40 mg/ml for tissues (guinea pig lung and cerebral cortex) and 20 mg/ml for cells in incubation buffer and remained at room temperature for at least 15 min prior to use. Receptor binding was initiated by addition of 250 ul membrane preparation in duplicate to 0.1 nM of the following radioligands: ^125 I-Bolton Hunter Lys-3 labeled substance P; ^125 iodohistidyl-1-neurokinin A; and ^125 I-Bolton Hunter labeled Lys-4 eledoisin in a final volume of 500 ul of buffer containing 50 mM Tris-HCl (pH 7.4 at room temperature), 0.1% bovine serum albumin, 2 mM MnCl2, 40 ug/ml bacitracin, 4 µg/ml leupeptin and chymostatin, 1 μM thiorphan and various doses of the putative tachykinin antagonists. Incubations were performed at room temperature for 90 min (NK1 receptor assays) or 2 hr (NK2 and NK3 receptor assays); binding was terminated by addition of 50 mM Tris-HCl buffer (pH 7.4, 4° C.) and filtration under vacuum through GF/B filters presoaked with 0.1% polyethyleneimine (NK1 receptor assays) or 0.5% bovine serum albumin (NK2 and NK3 receptor assays). Filter bound radioactivity was quantitated in a gamma counter. Nonspecific binding was defined as binding in the presence of 1 μM substance P, neurokinin A, or eledoisin. Specific binding was calculated by subtracting nonspecific binding from total binding. Competition of iodinated SP, NKA, or eledoisin binding by test compounds or standards was expressed as a percentage of this maximum competition. IC50 values (concentration required to inhibit 50% of receptor binding) were generated for each of the test compounds by nonlinear regression using an iterative curve fitting program (GraphPAD Inplot, San Diego, Calif.).

[1] = target: T1, human jejunal NK2 receptor (Homo sapiens, UniProt P21452); assay: Antagonism of iodinated tachykinin (125I-neurokinin A) binding to NK2 receptor in HSKR-1 cells
T1 construct: expressed in transfected cells; host or cells: HSKR-1 cells (mouse 3T3 fibroblasts)
T1 sequence (P21452 1-398): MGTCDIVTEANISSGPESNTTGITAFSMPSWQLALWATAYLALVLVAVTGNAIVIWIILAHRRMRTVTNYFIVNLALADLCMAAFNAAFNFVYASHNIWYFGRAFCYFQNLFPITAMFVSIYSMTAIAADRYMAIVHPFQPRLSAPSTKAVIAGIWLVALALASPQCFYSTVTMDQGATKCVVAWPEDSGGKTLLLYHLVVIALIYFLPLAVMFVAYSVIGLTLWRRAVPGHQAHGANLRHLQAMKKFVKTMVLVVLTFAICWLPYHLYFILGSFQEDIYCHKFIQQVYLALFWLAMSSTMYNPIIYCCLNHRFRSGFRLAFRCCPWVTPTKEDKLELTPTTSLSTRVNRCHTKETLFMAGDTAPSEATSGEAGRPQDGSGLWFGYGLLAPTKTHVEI
Method: as §1
The NK1 receptor affinity of proposed tachykinin antagonists was evaluated in guinea pig lungs (Keystone Biologicals, Cleveland, Ohio), affinity for the NK2 receptor evaluated in HSKR-1 cells (which are mouse 3T3 fibroblasts expressing the human jejunal NK2 receptor) and NK-3 receptor affinity was evaluated in freshly collected guinea pig cerebral cortex. Tissues or cells were homogenized with a Polytron in 15 volumes of 50 mM Tris-HCl buffer (pH 7.4, 4° C.) and centrifuged. The pellet was resuspended in Tris-HCl buffer and was centrifuged; the pellet was washed twice by resuspension. The final pellet was resuspended at a concentration of 40 mg/ml for tissues (guinea pig lung and cerebral cortex) and 20 mg/ml for cells in incubation buffer and remained at room temperature for at least 15 min prior to use. […] Filter bound radioactivity was quantitated in a gamma counter. […] Specific binding was calculated by subtracting nonspecific binding from total binding. Competition of iodinated SP, NKA, or eledoisin binding by test compounds or standards was expressed as a percentage of this maximum competition. […]

NK2 receptor = assay: Antagonism of NKA aerosol induced respiratory effects in conscious guinea pigs; type: in vivo, guinea pig; details: 20 min prior to NKA aerosol (0.05%); for DYSPNEA ONSET: mean and SEM
Method: ANTAGONISM OF NKA AND CAPSAICIN INDUCED R[…] IN CONSCIOUS GUINEA PIGS
In vivo experiments were performed using male Duncan Hartley guinea pigs (250-350 g). Changes in conscious breathing patterns were monitored in four animals simultaneously using modified whole body plethysmography consisting of four small plexiglass boxes each connected to a reference box via Validyne DP 45-16 differential pressure transducers. The 4 boxes were equipped with an air supply line (also used for aerosol delivery) and an exhaust air line. Supply and exhaust lines were of the same length and narrow bore and arose from a common supply chamber and vented to a common exhaust chamber. This system was used to ensure that fluctuations in supply air and atmospheric pressure would remain in phase and be eliminated from the net signal by the differential pressure transducers. The analog pressure signals were digitalized via a Data Translation DT2821 A to D board. Data were collected at a rate of 100 samples/second/animal. Each cycle of pressure change was analyzed using the following parameters: rising and falling slope determined between minimum and maximum pressures, the ratio of rising over falling slope, and the magnitude of the change between initial trough pressure and peak cycle pressure. Using these values (and observing the animals) the pressure cycles were characterized into normal breaths, forced exhalations (apparent by abdominal heaving), significant respiratory events (SREs; usually coughs, less often sneezes or gasps which were characterized by transient, extremely large pressure increases which were distinguishable from noise) and movement/noise with a PCAT 286 running a System V UNIX operating system. Dyspnea was defined as a significant, sustained increase in plethysmograph pressure which was associated with an observable shift to labored breathing in the animal.
During the course of a typical experiment in which airway responsiveness to various bronchoconstricting agents was examined, aerosols were delivered for 19 min (0.33 ml/min) using a DeVilbiss Ultraneb 99 ultrasonic nebulizer and animals monitored during this time. Prior to nebulization, 1 min of resting breathing was collected to establish a baseline pressure. […] The vehicle for nebulization of all bronchoconstrictive agents was phosphate buffered saline (pH 7.4) which elicited no r[…] itself. Putative tachykinin antagonists were administered either (i.v.) 20 min prior to onset of aerosol exposure or orally 1 hour prior to onset (to guinea pigs after an overnight fast).
Table 6 illustrates the effects of the compounds of Example 3; Example 20A; and Example 5A on r[…] induced by NKA aerosol. […] These effects were dose dependent i.e. the higher the dose of compound, the greater attenuation of NKA-mediated effects.

NK1 receptor, sequence (P30547 whole entry): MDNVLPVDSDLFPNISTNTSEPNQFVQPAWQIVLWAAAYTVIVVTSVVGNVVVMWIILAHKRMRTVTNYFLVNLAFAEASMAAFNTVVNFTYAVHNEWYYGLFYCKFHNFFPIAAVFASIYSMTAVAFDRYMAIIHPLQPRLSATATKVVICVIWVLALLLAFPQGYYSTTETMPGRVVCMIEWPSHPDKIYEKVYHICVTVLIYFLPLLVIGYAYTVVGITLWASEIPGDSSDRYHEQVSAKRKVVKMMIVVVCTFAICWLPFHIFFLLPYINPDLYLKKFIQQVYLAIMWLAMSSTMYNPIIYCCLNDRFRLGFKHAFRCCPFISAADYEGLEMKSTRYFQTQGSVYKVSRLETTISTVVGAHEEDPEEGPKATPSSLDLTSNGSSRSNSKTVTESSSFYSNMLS

COc1cc(C(=O)N2CCC(CCN3CCC(C(N)=O)(c4ccccc4)CC3)(c3ccc(Cl)c(Cl)c3)C2)cc(OC)c1OC (stereo not drawn) [Example 3, 1-[2-[3-(3,4-dichloro-phenyl)-1-(3,4,5-trimethoxy-benzoyl)-pyrrolidin-3-yl]-ethyl]-4-phenyl-piperidine-4-carboxylic acid amide]
affinity for NK1 receptors (in words) (NK1 receptor): high affinity
affinity for NK2 receptors (in words) [1]: high affinity
DYSPNEA INCIDENCE (NK2 receptor; 5 mg/kg): 86%
DYSPNEA ONSET (NK2 receptor; 5 mg/kg): 394 ± 32 s
DYSPNEA INCIDENCE (NK2 receptor; 10 mg/kg): 60%
DYSPNEA ONSET (NK2 receptor; 10 mg/kg): 801 ± 104 s
